The source of these data is paper PMC12592420, “A mismatch in enzyme-redox partnerships underlies divergent cytochrome P450 activities between human hepatocytes and microsomes” (Communications Biology, 2025).

Molecules are shown by their SMILES. “And” between values parts separate entries of the source, which are not always exact repeats. Equal values may be shown once.

Data set [1] in a line: Free fraction in HLM incubation, equilibrium dialysis. The settings on record: fraction unbound, measured or estimated by in silico models of Fuinc. It counts as in vitro ADME, human.
The nature of data set [2]: CLint in NADPH-supplemented human liver microsomes. The settings on record: for microsomal CLint at 1 µM / CLint scaled at 1 µM: human. The protocol: (§1) Calculation and scaling of CLint,u was done using the equation below and 45 mg of microsomal protein per gram of liver. HLMCLint,u=ln2/x1/t1/2(min)xmLincubation/mgmicrosomalproteinx45mgmicrosomalprotein/gliverx21gliver/kg/Fuinc
In general terms: Microsomes from liver hold many membrane-bound enzymes, among them those of drug oxidation.

Data set [3] can be described thus: in vitro. The settings on record: human, hepatocytes. As to the method:
Cryopreserved HH prepared from a mixed-gender pool of twenty donors (product X008000, lot EEO, BIOIVT), ten-donors (product S01205, lot MTJ, BIOIVT), ten donors (product S01205 lot LYB, BIOIVT) were utilised in the experiments. Cryopreserved HH were rapidly thawed in a water bath set at 37 °C and added to Leibovitz media that had been pre-warmed in the water bath. The suspension of cells was mixed gently and centrifuged at 40 × g for 4 min at room temperature. Excess media was removed, and the cells were re-suspended in 5 mL of fresh Leibovitz media. The cells were counted using an automated cell counter (Cellometer).

Data set [4] in a line: Incubations in human liver S9 + NADPH (same donor pool as HLM). The settings on record: human, human liver S9, pH 7.4, Midazolam CLint. It counts as in vitro ADME.
A short description of data set [5]: Midazolam CLint in HLM with NADPH:NADH (1:1). It counts as in vitro ADME, human. The settings on record: cofactor NADH:NADPH (1:1) (Fig. 5b).
Data set [6] in a line: Incubations in HLM + NADPH from the same donor pool as S9. It counts as in vitro ADME, human. The settings on record: for microsomal CLint at 1 µM: human, human liver microsomes, pH 7.4, Midazolam CLint. An excerpt:
Liver S9 (lot 1810001, pool of 50, Xenotech) and HLM (pool of 50, lot 1810003, Xenotech) from the same pool of donors were purchased from Xenotech.

The nature of data set [7]: in vitro. The settings on record: human, Caco-2.
In data set [8] the target is T1, recombinant human CYP3A4-Cytb5R containing cytochrome b5 (Homo sapiens, UniProt P08684).
T1 construct: purchased BioIVT (custom synthesis) CE00001(CYP3A4), batch CPD034-3A4; host or cells: bactosomes
T1 sequence (P08684 whole entry): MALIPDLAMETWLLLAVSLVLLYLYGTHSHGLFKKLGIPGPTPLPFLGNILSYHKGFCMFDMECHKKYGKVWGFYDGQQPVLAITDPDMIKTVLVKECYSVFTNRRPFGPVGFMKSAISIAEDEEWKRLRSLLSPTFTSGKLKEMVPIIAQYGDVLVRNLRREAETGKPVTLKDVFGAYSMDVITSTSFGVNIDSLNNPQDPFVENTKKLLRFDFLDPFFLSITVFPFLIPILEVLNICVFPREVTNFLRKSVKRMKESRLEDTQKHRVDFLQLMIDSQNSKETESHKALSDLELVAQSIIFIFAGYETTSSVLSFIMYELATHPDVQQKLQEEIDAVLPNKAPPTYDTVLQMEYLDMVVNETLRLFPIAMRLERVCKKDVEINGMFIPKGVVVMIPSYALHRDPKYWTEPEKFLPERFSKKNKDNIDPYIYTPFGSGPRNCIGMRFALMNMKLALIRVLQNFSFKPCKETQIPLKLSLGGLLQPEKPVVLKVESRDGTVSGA
The data set can be described thus: Midazolam CLint by non-canonical recombinant CYP3A4-Cytb5R with cytochrome b5, with and without gefitinib. The settings on record: CYP3A4_Cytb5R, NADPH, listed as Mid. It counts as in vitro ADME. As to the method:
(§2) As commercial recombinant human CYPs co-express the individual CYP and reductase with an option to include cytochrome b5. A custom synthesis co-expressing CYP3A4 or CYP1A2 and Cytb5R plus cytochrome b5 was, therefore, ordered from BioIVT and the bactosomes were compared with canonical CYP-POR enzymes plus cytochrome b5.
(§3) As the reaction-rate was much higher, aliquots were taken at 0, 1, 2, 3, 4 and 5 min.

The subject of another data set is rat hepatocytes. The data set can be described thus: Free fraction in rat hepatocytes as surrogate for HH, equilibrium dialysis. The settings on record: fraction unbound, measured or estimated by in silico models of Fuinc. It counts as in vitro ADME.
Data set [9] can be described thus: CLint in NADH-supplemented human liver microsomes. The settings on record: for microsomal CLint at 1 µM / CLint scaled at 1 µM: human. As to the method: as §1
Data set [10] has as its target T2, recombinant human CYP3A4-POR containing cytochrome b5 (Homo sapiens, UniProt P08684).
T2 construct: purchased BioIVT (named in b64 for the custom bactosomes); host or cells: bactosomes (E. coli is stated for the panel, not for this product)
Description: Midazolam CLint by canonical recombinant CYP3A4-POR with cytochrome b5, with and without gefitinib. It counts as in vitro ADME. The settings on record: CYP3A4_POR, NADPH, listed as Mid. The protocol:
as §3

The subject of the next data set is Cytb5R. The settings on record: Cytb5R for cofactor; cited from earlier work.
The test system of another data set is POR. The settings on record: POR for cofactor; cited from earlier work.
Data set [11] is described as follows: Intrinsic permeability in Caco-2 cells with efflux inhibited. The settings on record: human, Caco-2. Background: Passage across Caco-2 layers is used to estimate intestinal permeability.
Data set [12] is described as follows: LogD pH 7.4, octanol/phosphate buffer. The settings on record: octanol/phosphate buffer, pH 7.4.
A further data set addresses T3, CYP1A2-Cytb5R (Homo sapiens, UniProt P05177).
T3 construct: purchased BioIVT (custom synthesis) CE00001 (CYP1A2), batch CPD034-1A2-30; host or cells: bactosomes
T3 sequence (P05177 1-516): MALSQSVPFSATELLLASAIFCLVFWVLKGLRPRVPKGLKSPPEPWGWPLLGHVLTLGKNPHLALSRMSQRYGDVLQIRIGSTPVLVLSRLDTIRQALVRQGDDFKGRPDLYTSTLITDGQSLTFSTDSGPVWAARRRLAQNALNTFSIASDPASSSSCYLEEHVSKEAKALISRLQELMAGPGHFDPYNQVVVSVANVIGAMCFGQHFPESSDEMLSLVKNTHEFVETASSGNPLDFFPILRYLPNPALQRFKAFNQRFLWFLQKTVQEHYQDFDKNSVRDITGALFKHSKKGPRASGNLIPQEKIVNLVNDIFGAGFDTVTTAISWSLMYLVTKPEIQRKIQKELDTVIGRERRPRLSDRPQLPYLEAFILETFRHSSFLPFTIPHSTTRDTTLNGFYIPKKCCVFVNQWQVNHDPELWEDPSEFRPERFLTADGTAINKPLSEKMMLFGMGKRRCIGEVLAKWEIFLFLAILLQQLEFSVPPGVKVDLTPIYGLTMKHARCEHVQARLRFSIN
Description: Turnover by non-canonical recombinant CYP1A2-Cytb5R. It counts as in vitro ADME. The settings on record: noncanonical CYP1A2-Cytb5R.
Source text: as §2

Setting [13] is: HLM (same donors as S9) + NADPH + 5 uM GEF (Fig. 6b).
Where [14] appears, read: HLM (same donors as S9) + NADPH, midazolam 1 µM alone (Fig. 6b).

T2 sequence (P08684 whole entry): as the sequence (P08684 whole entry) above

Consider `Cc1ncc2n1-c1ccc(Cl)cc1C(c1ccccc1F)=NC2` [Midazolam], for which the fu_HLM in data set [1] was 0.454. The “NADPH_HLM_scaled_CLint,u” value in [2] (Fig. 4a,d) amounted to 614.71 mL/min/kg. The “Midazolam CLint” value was 265.8 µL/min/mg and 269.7 µL/min/mg in data set [2] (HLM + NADPH, control without gefitinib (Fig. 3d)); 392.5 µL/min/mg and 377.3 µL/min/mg in [6] (setting [13]); 329.2 µL/min/mg in data set [6] (setting [14]); 19.6 µL/min/nmol and 13.9 µL/min/nmol and 18.8 µL/min/nmol in [8] (Mid + GEF 5 µM (Fig. 5f)); 6.9 µL/min/nmol and 5.5 µL/min/nmol and 5.1 µL/min/nmol in [8] (Mid alone (Fig. 5f)); 23.9 µL/min/mg and 21.4 µL/min/mg in [9] (HLM + NADH, control without gefitinib (Fig. 3d)). Moreover, the “Midazolam CLint” value in data set [10] (Mid + GEF 5 µM (Fig. 5e)) was 3292.07 µL/min/nmol and 3281.83 µL/min/nmol and 2734.43 µL/min/nmol; in [10] (Mid alone (Fig. 5e)), 4061.76 µL/min/nmol and 4262.77 µL/min/nmol and 3511.63 µL/min/nmol. The “Midazolam scaled CLint,u” value in [2] (HLM + NADPH, no gefitinib (Fig. 3a)) was 531.926 mL/min/kg and 593.803 mL/min/kg. In addition, the “Scaled midazolam CLint,u” value in data set [2] (HLM, cofactor NADPH (Fig. 5b)) was 703.964 mL/min/kg and 722.238 mL/min/kg; in data set [5], 761.569 mL/min/kg and 740.511 mL/min/kg; in [9] (HLM, cofactor NADH (Fig. 5b)) it was 248.867 mL/min/kg and 261.398 mL/min/kg. Further, the “Scaled HLM CLint,u” value in data set [2] (NADPH-HLM, individual determinations 1-3, Fig. 1) was 632.553 mL/min/kg and 670.23 mL/min/kg. For the same compound, the intrinsic metabolic clearance (microsomal CLint) (commonly a measure of how fast metabolising enzymes remove a compound, apart from limits set by blood flow) at 1 µM in data set [2] (microsomes, pH 7.4, HLM_NADPH CLint, 1 µM, single determination, Fig. 4a,d) amounted to 295 µL/min/mg; in data set [2] (microsomes, pH 7.4, Midazolam CLint, HLM + NADPH, control without gefitinib (Fig. 3d)), 288 µL/min/mg; in data set [4] (S9 + NADPH + 5 uM GEF (Fig. 6b)), 150 µL/min/mg; in data set [4] (S9 + NADPH, midazolam 1 µM alone (Fig. 6b)) it was 77.2 µL/min/mg; in data set [6] (setting [13]) it was 336 µL/min/mg; in data set [6] (setting [14]) it was 276 µL/min/mg. Besides, the microsomal CLint at 1 µM in data set [9] (microsomes, pH 7.4, HLM_NADH CLint, 1 µM, single determination, Fig. 4a,d) was found to be 103 µL/min/mg; in [9] (microsomes, pH 7.4, Midazolam CLint, HLM + NADH, control without gefitinib (Fig. 3d)), 14.7 µL/min/mg. Besides, the CLint scaled (in general, the capacity of the preparation to metabolise the compound, expressed as a volume cleared per time) at 1 µM in [2] (microsomes, pH 7.4, Midazolam scaled CLint,u, HLM + NADPH, no gefitinib (Fig. 3a)) is 619 mL/min/kg; in [2] (microsomes, pH 7.4, Scaled HLM CLint,u average, NADPH-HLM, average, Fig. 1) it was 649 mL/min/kg; in data set [2] (microsomes, pH 7.4, Scaled HLM CLint,u, NADPH-HLM, individual determinations 1-3, Fig. 1), 643 mL/min/kg; in [2] (microsomes, pH 7.4, Scaled midazolam CLint,u, HLM, cofactor NADPH (Fig. 5b)), 693 mL/min/kg; in data set [5] (human, human liver microsomes, pH 7.4, Scaled midazolam CLint,u) it was 762 mL/min/kg; in data set [9] (microsomes, pH 7.4, NADH_HLM_scaled_CLint,u, Fig. 4a,d) it was 213 mL/min/kg. In data set [9] (microsomes, pH 7.4, Scaled midazolam CLint,u, HLM, cofactor NADH (Fig. 5b)), this compound had a CLint scaled at 1 µM of 247 mL/min/kg. Moreover, the CLint scaled is 90.5 mL/min/kg in the data set “in vitro [3]” (HH_scaled_CLint,u), 104 mL/min/kg in “in vitro [3]” (Midazolam scaled CLint,u), 62.8 mL/min/kg in “in vitro [3]” (Scaled HH CLint,u) and 51.2 mL/min/kg in the data set “in vitro [3]” (Scaled HH CLint,u average). In addition, the “Percentage of midazolam alone” value in data set [6] (setting [13]) is 121.498% and 119.228% and 122.262%. Also, the Papp (in general, the rate of passage across a membrane or cell layer, normalised by area and donor concentration) in the data set “in vitro [7]” worked out at 47.5 ×10⁻⁶ cm/s. The fu_ratHH in the data set with rat hepatocytes is listed as 0.543.
Consider `NC(=O)C1=CN([C@@H]2O[C@H](COP(=O)(O)OP(=O)(O)OC[C@H]3O[C@@H](n4cnc5c(N)ncnc54)[C@H](O)[C@@H]3O)[C@@H](O)[C@H]2O)C=CC1` [NADH], for which the Km – broadly, the concentration of substrate that gives half-maximal velocity – in the data set with Cytb5R is 6 µM; in the data set with POR, 48000 µM.
As to `NC(=O)C1=CN([C@@H]2O[C@H](COP(=O)(O)OP(=O)(O)OC[C@H]3O[C@@H](n4cnc5c(N)ncnc54)[C@H](OP(=O)(O)O)[C@@H]3O)[C@@H](O)[C@H]2O)C=CC1` [NADPH], the Km with Cytb5R is 1000 µM; with POR, 2 to 15 µM.
As to `CCOc1ccc(NC(C)=O)cc1` [Phenacetin], in data set [1], the fu_HLM is on record as 0.948. For the same compound, the microsomal CLint at 1 µM was 24.5 µL/min/mg in [2] (human liver microsomes + NADPH, pH 7.4) and 5.68 µL/min/mg in data set [9] (human liver microsomes + NADH, pH 7.4). In addition, the CLint scaled at 1 µM was found to be 24.4 mL/min/kg in [2] (human liver microsomes, pH 7.4, NADPH_HLM_scaled_CLint,u, Fig. 4a,d) and 5.66 mL/min/kg in data set [9] (human liver microsomes, pH 7.4). Besides, the Papp at 2 h, 10 µM in [11] was found to be 76.1 ×10⁻⁶ cm/s. The hepatocyte CLint (usually the capacity of the preparation to metabolise the compound, expressed as a volume cleared per time) in the data set “in vitro [3]” (both) turned out to be 7.38 µL/min/1e6 cells. The CLint scaled in the data set “in vitro [3]” (HH_scaled_CLint,u, Fig. 4a) stood at 19.5 mL/min/kg. Further, in the data set on rat hepatocytes, the fu_ratHH is listed as 0.955. Besides, the logD (commonly lipophilicity at a set pH, counting ionised and neutral species) in data set [12] worked out at 1.48. Moreover, the “turnover (metabolite formation or disappearance of parent)” value on CYP1A2-Cytb5R was “no detectable turnover”.
